From patent US20260083851A1 (AVILAR THERAPEUTICS, INC., priority 2022, published 2026)

Biological target: T1, ASGP receptor (biotinylated ASGPR) (Homo sapiens, UniProt P07306)
T1 construct: biotin (biotinylated)
T1 sequence (P07306 1-291): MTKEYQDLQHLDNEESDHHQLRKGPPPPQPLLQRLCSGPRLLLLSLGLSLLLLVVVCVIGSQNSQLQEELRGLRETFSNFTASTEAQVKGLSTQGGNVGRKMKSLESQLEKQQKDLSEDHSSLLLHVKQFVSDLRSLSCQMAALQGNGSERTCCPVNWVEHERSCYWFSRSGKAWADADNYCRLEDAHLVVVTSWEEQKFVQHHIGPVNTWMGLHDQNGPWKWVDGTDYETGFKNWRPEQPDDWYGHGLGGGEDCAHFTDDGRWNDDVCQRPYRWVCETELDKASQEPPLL
Assay type: binding
Details: SPR, Biacore 8K, 25° C.; Table 1C; read-out: ASGPR KD

Kd | Compound
< 10 µM | O=C(O)c1ccc(N2CCN(C[C@H]3OC[C@H](Nc4cncc(C(F)(F)F)n4)[C@@H](O)[C@H]3O)CC2)cc1 [A223, 4-(4-(((2R,3R,4R,5S)-3,4-dihydroxy-5-((6-(trifluoromethyl)pyrazin-2-yl)amino)tetrahydro-2H-pyran-2-yl)methyl)piperazin-1-yl) benzoic acid]
< 10 µM | O[C@@H]1[C@H](O)[C@@H](Oc2cccc(C(F)(F)F)n2)CO[C@@H]1c1cn(C2CCNCC2)nn1 [A224, (2R,3R,4S,5S)-2-(1-(piperidin-4-yl)-1H-1,2,3-triazol-4-yl)-5-((6-(trifluoromethyl)pyridin-2-yl)oxy)tetrahydro-2H-pyran-3,4-diol]
< 10 µM | O=C(O)c1ccc(-c2ccc(OC[C@H]3OC[C@H](Nc4cccc(C(F)(F)F)n4)[C@@H](O)[C@H]3O)cc2)cc1 [A225, 4′-(((2R,3R,4R,5S)-3,4-dihydroxy-5-((6-(trifluoromethyl)pyridin-2-yl)amino)tetrahydro-2H-pyran-2-yl)methoxy)-[1,1′-biphenyl]-4-carboxylic acid]
< 10 µM | O[C@@H]1[C@H](O)[C@@H](Nc2cccc(C(F)(F)F)n2)CO[C@@H]1COc1ncccn1 [A226, (2R,3R,4R,5S)-2-((pyrimidin-2-yloxy)methyl)-5-((6-(trifluoromethyl)pyridine-2-yl)amino)tetrahydro-2H-pyran-3,4-diol]
< 10 µM | O[C@@H]1[C@H](O)[C@@H](Nc2cccc(C(F)(F)F)n2)CO[C@@H]1COc1cccnn1 [A227, (2R,3R,4R,5S)-2-((pyridazin-3-yloxy)methyl)-5-((6-(trifluoromethyl)pyridine-2-yl)amino)tetrahydro-2H-pyran-3,4-diol]
< 10 µM | O=C(O)c1ccc(-c2ccc(OC[C@H]3OC[C@H](Oc4cccc(C(F)(F)F)n4)[C@@H](O)[C@H]3O)cc2)cc1 [A228, 4′-(((2R,3R,4S,5S)-3,4-dihydroxy-5-((6-(trifluoromethyl)pyridin-2-yl)oxy)tetrahydro-2H-pyran-2-yl)methoxy)-[1,1′-biphenyl]-4-carboxylic acid]
< 10 µM | O[C@@H]1[C@H](O)[C@@H](Oc2cccc(C(F)(F)F)n2)CO[C@@H]1COc1cnccn1 [A229, (2R,3R,4S,5S)-2-((pyrazin-2-yloxy)methyl)-5-((6-(trifluoromethyl)pyridin-2-yl)oxy)tetrahydro-2H-pyran-3,4-diol]
< 10 µM | CC(C)(C)OC(=O)N1CC2CN(C[C@H]3OC[C@H](Nc4cncc(C(F)(F)F)n4)[C@@H](O)[C@H]3O)CC21 (stereo partly drawn) [A230, tert-butyl 3-(((2R,3R,4R,5S)-3,4-dihydroxy-5-((6-(trifluoromethyl)pyrazin-2-yl)amino)tetrahydro-2H-pyran-2-yl)methyl)-3,6-diazabicyclo [3.2.0] heptane-6-carboxylate]
< 10 µM | O[C@@H]1[C@H](O)[C@@H](Nc2cncc(C(F)(F)F)n2)CO[C@@H]1CN1Cc2ccccc2C1 [A231, (2R,3R,4R,5S)-2-(isoindolin-2-ylmethyl)-5-((6-(trifluoromethyl)pyrazin-2-yl)amino)tetrahydro-2H-pyran-3,4-diol]
< 10 µM | O[C@@H]1[C@H](O)[C@@H](Nc2cncc(C(F)(F)F)n2)CO[C@@H]1CN1CCc2ccccc2C1 [A232, (2R,3R,4R,5S)-2-((3,4-dihydroisoquinolin-2(1H)-yl)methyl)-5-((6-(trifluoromethyl)pyrazin-2-yl)amino)tetrahydro-2H-pyran-3,4-diol]
< 10 µM | O[C@@H]1[C@H](O)[C@@H](Oc2cccc(C(F)(F)F)n2)CO[C@@H]1CN1CCCCC1 [A233, (2R,3R,4S,5S)-2-(piperidin-1-ylmethyl)-5-((6-(trifluoromethyl)pyridin-2-yl)oxy)tetrahydro-2H-pyran-3,4-diol]
< 10 µM | O[C@@H]1[C@H](O)[C@@H](Oc2cccc(C(F)(F)F)n2)CO[C@@H]1COc1ccccc1 [A234, (2R,3R,4S,5S)-2-(phenoxymethyl)-5-((6-(trifluoromethyl)pyridin-2-yl)oxy)tetrahydro-2H-pyran-3,4-diol]
< 10 µM | O[C@@H]1[C@H](O)[C@@H](Oc2cccc(C(F)(F)F)n2)CO[C@@H]1COc1ncccn1 [A235, (2R,3R,4S,5S)-2-((pyrimidin-2-yloxy)methyl)-5-((6-(trifluoromethyl)pyridin-2-yl)oxy)tetrahydro-2H-pyran-3,4-diol]
< 10 µM | O[C@@H]1[C@H](O)[C@@H](Nc2cccc(C(F)(F)F)n2)CO[C@@H]1COc1ccc(Br)cc1 [A236, (2R,3R,4R,5S)-2-((4-bromophenoxy)methyl)-5-((6-(trifluoromethyl)pyridin-2-yl)amino)tetrahydro-2H-pyran-3,4-diol]
< 10 µM | OC[C@H]1O[C@H](Oc2ccc(N3CCNCC3)cc2)[C@H](Oc2cccc(C(F)(F)F)n2)[C@@H](O)[C@H]1O [A237]
< 10 µM | O[C@@H]1[C@H](O)[C@@H](Oc2cccc(C(F)(F)F)n2)CO[C@@H]1COc1ccc(Br)cc1 [A238]
< 10 µM | O[C@@H]1[C@H](O)[C@@H](Nc2cccc(C(F)(F)F)n2)CO[C@@H]1COc1cnccn1 [A239]
< 10 µM | O[C@@H]1[C@H](O)[C@@H](Nc2cccc(C(F)(F)F)n2)CO[C@@H]1CN1CCCC1 [A240]
< 10 µM | O[C@@H]1[C@H](O)[C@@H](Nc2cccc(C(F)(F)F)n2)CO[C@@H]1CN1CCCCC1 [A241]
< 10 µM | O[C@@H]1[C@H](O)[C@@H](Oc2cccc(C(F)(F)F)n2)CO[C@@H]1CN1CCN(c2ccccc2)CC1 [A242]
< 10 µM | O[C@@H]1[C@H](O)[C@@H](Nc2cccc(C(F)(F)F)n2)CO[C@@H]1COc1ccccc1 [A243]
< 10 µM | O=C(O)c1cnc(OC[C@H]2OC[C@H](Oc3cccc(C(F)(F)F)n3)[C@@H](O)[C@H]2O)cn1 [A244]
< 10 µM | O[C@@H]1[C@H](O)[C@@H](Oc2cccc(C(F)(F)F)n2)CO[C@@H]1CN1CCC1 [A245]
< 10 µM | O=C(O)c1ccc(OC[C@H]2OC[C@H](Oc3cccc(C(F)(F)F)n3)[C@@H](O)[C@H]2O)nn1 [A246]
< 10 µM | O[C@@H]1[C@H](O)[C@@H](Oc2cccc(C(F)(F)F)n2)CO[C@@H]1COc1ccc(N2CCNCC2)c(F)c1 [A247]
< 10 µM | CN1CCN(C[C@H]2OC[C@H](Oc3cccc(C(F)(F)F)n3)[C@@H](O)[C@H]2O)CC1 [A249]

Kd | Compound
< 10 µM | OC[C@H]1O[C@H](c2ccc(N3CCNCC3)cc2)[C@H](Oc2cccc(C(F)(F)F)n2)[C@@H](O)[C@H]1O [A250]
< 10 µM | O=C(O)c1c(F)cc(CN2CCN(C[C@H]3OC[C@H](Nc4cncc(C(F)(F)F)n4)[C@@H](O)[C@H]3O)CC2)cc1F [A251]
< 10 µM | C[C@H]1O[C@H](c2ccccc2)[C@H](Oc2cccc(C(F)(F)F)n2)[C@@H](O)[C@H]1O [A252]
< 10 µM | O[C@@H]1[C@H](O)[C@@H](Oc2cccc(C(F)(F)F)n2)CO[C@@H]1CN1CCc2ccccc2C1 [A254]
< 10 µM | O=C(O)c1ccc(-c2ccc(OC[C@H]3OC[C@H](Oc4cccc(C(F)(F)F)n4)[C@@H](O)[C@H]3O)nn2)cc1 [A255]
< 10 µM | CC(C)(C)OC(=O)N1CC(Cc2ccc(OC[C@H]3OC[C@H](Oc4cccc(C(F)(F)F)n4)[C@@H](O)[C@H]3O)nn2)C1 [A256]
< 10 µM | O[C@@H]1[C@H](O)[C@@H](Oc2cccc(C(F)(F)F)n2)CO[C@@H]1CN1CCN(c2ccc(Br)nn2)CC1 [A257]
< 10 µM | O=C1CCCN1C[C@H]1OC[C@H](Oc2cccc(C(F)(F)F)n2)[C@@H](O)[C@H]1O [A258]
< 10 µM | O[C@@H]1[C@H](O)[C@@H](Oc2cccc(C(F)(F)F)n2)CO[C@@H]1CN1CCN(c2ccccn2)CC1 [A259]
< 10 µM | CC(C)(C)OC(=O)N1CC2CN(C[C@H]3OC[C@H](Oc4cccc(C(F)(F)F)n4)[C@@H](O)[C@H]3O)CC21 (stereo partly drawn) [A261]
< 10 µM | CC(C)(C)OC(=O)N1CC2CN(C[C@H]3OC[C@H](Oc4cccc(C(F)(F)F)n4)[C@@H](O)[C@H]3O)CC2C1 (stereo partly drawn) [A262]
< 10 µM | O=C1c2ncccc2CN1C[C@H]1OC[C@H](Oc2cccc(C(F)(F)F)n2)[C@@H](O)[C@H]1O [A263]
< 10 µM | O[C@@H]1[C@H](O)[C@@H](Oc2cccc(C(F)(F)F)n2)CO[C@@H]1CN1CCN(c2cccnn2)CC1 [A264]
< 10 µM | O=C1c2ccccc2CN1C[C@H]1OC[C@H](Oc2cccc(C(F)(F)F)n2)[C@@H](O)[C@H]1O [A265]
< 10 µM | CC(C)(C)OC(=O)N1CCC2(CC1)CN(C[C@H]1OC[C@H](Oc3cccc(C(F)(F)F)n3)[C@@H](O)[C@H]1O)C2 [A267]
< 10 µM | O[C@@H]1[C@H](O)[C@@H](Nc2cccc(C(F)(F)F)n2)CO[C@@H]1CN1CCc2ccccc2C1 [A268]
< 10 µM | O[C@@H]1[C@@H](Nc2cncc(C(F)(F)F)n2)[C@H]2OC[C@](COc3cnccn3)(O2)[C@@H]1O [A269]
< 10 µM | O[C@@H]1[C@H](O)[C@@H](Oc2cccc(C(F)(F)F)n2)CO[C@@H]1CN1CCN(c2ncccn2)CC1 [A270]
< 10 µM | CC(C)(C)OC(=O)N1CCC2CN(C[C@H]3OC[C@H](Oc4cccc(C(F)(F)F)n4)[C@@H](O)[C@H]3O)CC2C1 (stereo partly drawn) [A271]
< 10 µM | O=C1c2c(F)cccc2CN1C[C@H]1OC[C@H](Oc2cccc(C(F)(F)F)n2)[C@@H](O)[C@H]1O [A272]
< 10 µM | O=C1c2ccc(F)cc2CN1C[C@H]1OC[C@H](Oc2cccc(C(F)(F)F)n2)[C@@H](O)[C@H]1O [A273]
< 10 µM | O[C@@H]1[C@H](O)[C@@H](Oc2cccc(C(F)(F)F)n2)CO[C@@H]1CN1Cc2ccccc2C1 [A274]
< 10 µM | O[C@@H]1[C@H](O)[C@@H](Oc2cccc(C(F)(F)F)n2)CO[C@@H]1CN1CCN(c2cccnc2)CC1 [A275]
< 10 µM | O=C(O)c1ccc(N2CCN(C[C@H]3OC[C@H](Oc4cccc(C(F)(F)F)n4)[C@@H](O)[C@H]3O)CC2)nn1 [A276]
< 10 µM | O=C1c2ccccc2CN1C[C@H]1OC[C@H](Nc2cccc(C(F)(F)F)n2)[C@@H](O)[C@H]1O [A277]
